Measurements published in ChEMBL document CHEMBL4011591, “Discovery and pharmacological evaluation of a novel series of adamantyl cyanoguanidines as P2X7 receptor antagonists” (Eur J Med Chem, 2017).
Each block holds one compound with its values, some of them ahead of it. The source made the active and inactive calls. The calls are words filed in the database; no cut-off is given here.

What was measured:
P2X purinoceptor 7 [1] = biological target: T1, P2X purinoceptor 7 (Homo sapiens, UniProt Q99572); experiment: Antagonist activity at P2X7 receptor in human THP1 cells assessed as inhibition of BzATP-induced YO-PRO-1 Iodide uptake measured every 30 secs for 1 hr by fluorescence assay; type: cell-based
T1 sequence (Q99572 whole entry): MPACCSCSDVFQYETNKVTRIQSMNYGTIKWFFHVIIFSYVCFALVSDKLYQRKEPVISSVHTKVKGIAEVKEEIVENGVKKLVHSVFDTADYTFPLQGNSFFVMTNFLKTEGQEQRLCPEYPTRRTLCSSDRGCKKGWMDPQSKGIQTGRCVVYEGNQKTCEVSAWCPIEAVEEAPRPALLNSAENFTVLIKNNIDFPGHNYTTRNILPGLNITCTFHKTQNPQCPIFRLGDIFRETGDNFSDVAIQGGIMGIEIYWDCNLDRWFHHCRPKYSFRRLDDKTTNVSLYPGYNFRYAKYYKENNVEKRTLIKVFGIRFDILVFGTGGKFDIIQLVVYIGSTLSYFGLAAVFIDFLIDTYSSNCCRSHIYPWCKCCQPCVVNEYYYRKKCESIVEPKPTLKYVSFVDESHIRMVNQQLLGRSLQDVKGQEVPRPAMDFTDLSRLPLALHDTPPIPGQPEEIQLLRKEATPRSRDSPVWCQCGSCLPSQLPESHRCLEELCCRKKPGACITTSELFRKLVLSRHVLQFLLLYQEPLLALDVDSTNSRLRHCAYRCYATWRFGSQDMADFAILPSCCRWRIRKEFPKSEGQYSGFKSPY

[2] = biological target: T2, P2X purinoceptor 7 (Homo sapiens) (UniProt Q99572); experiment: Ratio of IC50 for P2X7 receptor in human THP1 cells assessed as inhibition of BzATP-induced YO-PRO-1 Iodide uptake to IC50 for P2X7 receptor in LPS-stimulated human THP1 cells assessed as inhibition of LPS/BzATP-induced IL-1beta release; type: cell-based
T2 sequence (whole entry): T1 sequence (Q99572 whole entry)

P2X purinoceptor 7 [3] = biological target: T1, P2X purinoceptor 7; experiment: Antagonist activity at P2X7 receptor in LPS-stimulated human THP1 cells assessed as inhibition of LPS/BzATP-induced IL-1beta release preincubated for 30 mins followed by BzATP addition measured after 30 mins by ELISA
[4] = Half life in CD-1 mouse at 3 mg/kg, po administered as single dose via gavage by HPLC-MS/MS; type: ADME, organism-based; conditions: in vivo
P2X purinoceptor 7 [5] = biological target: T3, P2X purinoceptor 7 (Rattus norvegicus, UniProt Q64663); experiment: Antagonist activity at rat P2X7 receptor expressed in 1321N1 cells assessed as inhibition of agonist-induced calcium flux pretreated for 3 mins followed by BzATP addition after 3 mins measured every 1 sec for 60 secs and at 5 secs interval throughout testing by Flou-4-AM dye based FLIPR assay; type: cell-based
T3 sequence (Q64663 whole entry): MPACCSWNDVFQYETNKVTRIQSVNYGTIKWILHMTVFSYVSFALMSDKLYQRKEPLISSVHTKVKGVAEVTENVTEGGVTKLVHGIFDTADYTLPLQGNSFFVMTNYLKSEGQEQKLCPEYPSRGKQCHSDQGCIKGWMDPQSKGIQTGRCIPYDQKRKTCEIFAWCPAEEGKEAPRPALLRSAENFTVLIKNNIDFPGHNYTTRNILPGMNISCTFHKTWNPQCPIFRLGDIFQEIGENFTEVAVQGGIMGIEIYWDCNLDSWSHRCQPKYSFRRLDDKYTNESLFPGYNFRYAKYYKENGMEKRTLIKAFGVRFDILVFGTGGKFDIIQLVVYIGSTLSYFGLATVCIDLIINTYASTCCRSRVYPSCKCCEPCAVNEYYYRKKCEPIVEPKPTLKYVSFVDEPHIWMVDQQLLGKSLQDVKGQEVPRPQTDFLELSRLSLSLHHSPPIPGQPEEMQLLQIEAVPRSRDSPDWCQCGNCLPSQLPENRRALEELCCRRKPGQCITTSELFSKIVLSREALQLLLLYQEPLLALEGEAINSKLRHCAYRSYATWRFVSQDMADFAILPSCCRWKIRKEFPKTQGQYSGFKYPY

[6] = Clearance in Balb-C mouse at 2 mg/kg, iv administered as bolus dose by LC-MS method; type: ADME, organism-based; conditions: in vivo
[7] = Cmax in Balb-C mouse at 1 mg/kg, iv administered as bolus dose by LC-MS method; type: ADME, organism-based; parameters: dose 1 mg/kg, route intravenous; conditions: in vivo
[8] = Tmax in Balb-C mouse at 2 mg/kg, iv administered as bolus dose by LC-MS method; type: ADME, organism-based; conditions: in vivo
[9] = Plasma concentration in Balb-C mouse at 2 mg/kg, iv administered as bolus dose measured after 37 mins by LC-MS analysis; type: ADME, organism-based
[10] = Plasma concentration in Balb-C mouse at 10 mg/kg, po measured after 62 mins by LC-MS analysis; type: ADME, organism-based
[11] = Plasma concentration in Balb-C mouse at 10 mg/kg, po measured after 30 mins by LC-MS analysis; type: ADME, organism-based
[12] = Tmax in Balb-C mouse at 1 mg/kg, iv administered as bolus dose by LC-MS method; type: ADME, organism-based; conditions: in vivo
[13] = Terminal elimination rate constant in Balb-C mouse at 2 mg/kg, iv administered as bolus dose by LC-MS method; type: ADME, organism-based; conditions: in vivo, read-out: LZ (converted)
[14] = Plasma concentration in Balb-C mouse at 2 mg/kg, iv administered as bolus dose measured after 2.2 mins by LC-MS analysis; type: ADME, organism-based
[15] = Half life in Balb-C mouse at 2 mg/kg, iv administered as bolus dose by LC-MS method; type: ADME, organism-based; conditions: in vivo
[16] = Plasma concentration in Balb-C mouse at 2 mg/kg, iv administered as bolus dose measured after 63 mins by LC-MS analysis; type: ADME, organism-based
[17] = Plasma concentration in Balb-C mouse at 2 mg/kg, iv administered as bolus dose measured after 39 mins by LC-MS analysis; type: ADME, organism-based
[18] = Plasma concentration in Balb-C mouse at 10 mg/kg, po measured after 33 mins by LC-MS analysis; type: ADME, organism-based
[19] = Plasma concentration in Balb-C mouse at 2 mg/kg, iv administered as bolus dose measured after 2.5 mins by LC-MS analysis; type: ADME, organism-based
[20] = Plasma concentration in Balb-C mouse at 2 mg/kg, iv administered as bolus dose measured after 10 mins by LC-MS analysis; type: ADME, organism-based
[21] = Solubility of the compound in 8% ethanol/8% polysorbate80/84% saline formulation; type: physicochemical; conditions: buffer
[22] = Plasma concentration in Balb-C mouse at 2 mg/kg, iv administered as bolus dose measured after 23 mins by LC-MS analysis; type: ADME, organism-based
[23] = Plasma concentration in Balb-C mouse at 2 mg/kg, iv administered as bolus dose measured after 5.8 mins by LC-MS analysis; type: ADME, organism-based
[24] = Plasma concentration in Balb-C mouse at 2 mg/kg, iv administered as bolus dose measured after 76 mins by LC-MS analysis; type: ADME, organism-based
[25] = Plasma concentration in Balb-C mouse at 10 mg/kg, po measured after 21 mins by LC-MS analysis; type: ADME, organism-based
[26] = Plasma concentration in Balb-C mouse at 2 mg/kg, iv administered as bolus dose measured after 10.1 mins by LC-MS analysis; type: ADME, organism-based
[27] = Plasma concentration in Balb-C mouse at 2 mg/kg, iv administered as bolus dose measured after 6 mins by LC-MS analysis; type: ADME, organism-based
[28] = MRT (0 to infinity) in Balb-C mouse at 2 mg/kg, iv administered as bolus dose by LC-MS method; type: ADME, organism-based; conditions: in vivo
Mus musculus [29] = experiment: Toxicity in Balb-C mouse assessed as abnormal behavior at 0.1 to 1 mg/kg, ip measured after 30 mins; type: organism-based; conditions: in vivo, 0.5 h
[30] = AUC (0 to t) in Balb-C mouse at 2 mg/kg, iv administered as bolus dose by LC-MS method; type: ADME, organism-based; conditions: in vivo
[31] = Cmax in Balb-C mouse at 2 mg/kg, iv administered as bolus dose by LC-MS method; type: ADME, organism-based; parameters: dose 2 mg/kg, route intravenous; conditions: in vivo
[32] = Plasma concentration in Balb-C mouse at 2 mg/kg, iv administered as bolus dose measured after 15 mins by LC-MS analysis; type: ADME, organism-based
[33] = Plasma concentration in Balb-C mouse at 2 mg/kg, iv administered as bolus dose measured after 58 mins by LC-MS analysis; type: ADME, organism-based
[34] = AUC (0 to infinity) in Balb-C mouse at 2 mg/kg, iv administered as bolus dose by LC-MS method; type: ADME, organism-based; parameters: dose 2 mg/kg, time infinity, route intravenous; conditions: in vivo
Mus musculus [35] = experiment: Toxicity in Balb-C mouse assessed as behavior changes at 0.1 to 1 mg/kg, ip measured after 48 hrs; type: organism-based; conditions: in vivo
Mus musculus [36] = experiment: Anti-depressant like activity in wild-type Balb-C mouse assessed as reduction in duration of immobility at 1 mg/kg, ip administered 15 to 30 mins prior to the testing measured on day 3 post dose by force swim test; type: functional, organism-based
Mus musculus [37] = experiment: Toxicity in Balb-C mouse assessed as psychological changes at 0.1 to 1 mg/kg, ip measured after 48 hrs; type: organism-based; conditions: in vivo
[38] = Volume of distribution in Balb-C mouse at 2 mg/kg, iv administered as bolus dose by LC-MS method; type: ADME, organism-based; conditions: in vivo

Structure (SMILES): N#C/N=C(/NCc1ccccc1)NC12CC3CC(CC(C3)C1)C2
IC50 (P2X purinoceptor 7 [1]): > 10000 nM

Structure (SMILES): c1cnc2cc3c(cc2n1)[C@@H]1CNC[C@H]3C1 [VARENICLINE]
half-life [4]: 84 min

Structure (SMILES): N#C/N=C(/Nc1ccccc1)NC12CC3CC(CC(C3)C1)C2
IC50 (P2X purinoceptor 7 [1]): 2460 nM

Structure (SMILES): C[C@H](N/C(=N/C#N)Nc1cccc2ncccc12)c1ccccc1
IC50 (P2X purinoceptor 7 [5]): 9 to 11 nM

Structure (SMILES): N#C/N=C(/NCCc1ccccc1)NC12CC3CC(CC(C3)C1)C2
IC50 (P2X purinoceptor 7 [1]): > 10000 nM

Structure (SMILES): COc1cccc(N/C(=N/C#N)NCC23CC4CC(CC(C4)C2)C3)c1
IC50 (P2X purinoceptor 7 [1]): 58 nM

Structure (SMILES): N#C/N=C(\NCC12CC3CC(CC(C3)C1)C2)Nc1ccc(F)cc1
IC50 (P2X purinoceptor 7 [1]): 174 nM

More lines, main results first:

IC50 (P2X purinoceptor 7 [1]): 4070 nM
Structure (SMILES): N#C/N=C(/NCCc1ccccc1)NCC12CC3CC(CC(C3)C1)C2

IC50 (P2X purinoceptor 7 [1]): 214 nM
Structure (SMILES): N#C/N=C(\NCC12CC3CC(CC(C3)C1)C2)Nc1cccnc1

Ratio IC50 [2]: 5.2 | IC50 (P2X purinoceptor 7 [1]): 407 nM | IC50 (P2X purinoceptor 7 [3]): 79 nM
Structure (SMILES): N#C/N=C(/NCc1ccccc1)NCC12CC3CC(CC(C3)C1)C2

Ratio IC50 [2]: 9 | IC50 (P2X purinoceptor 7 [1]): 18 nM | IC50 (P2X purinoceptor 7 [3]): 2 nM
Structure (SMILES): N#C/N=C(\NCC12CC3CC(CC(C3)C1)C2)Nc1cccc2ncccc12

IC50 (P2X purinoceptor 7 [1]): 851 nM
Structure (SMILES): COc1cccc(CN/C(=N/C#N)NCC23CC4CC(CC(C4)C2)C3)c1

IC50 (P2X purinoceptor 7 [1]): 186 nM
Structure (SMILES): N#C/N=C(\NCC12CC3CC(CC(C3)C1)C2)Nc1cccc(F)c1

clearance [6]: 117 mL/min/kg | Cmax [7]: 912 nM | Tmax [8]: 2.5 min | concentration at 37 min [9]: 123 ng/mL | concentration at 62 min [10]: 5.8 ng/mL | concentration at 0.5 h [11]: 39 ng/mL | Tmax [12]: 20 to 30 min | k el [13]: 0.000886 s⁻¹ | concentration at 132 s [14]: 687 ng/mL | Ratio IC50 [2]: 1.7 | IC50 (P2X purinoceptor 7 [1]): 69 nM | half-life [15]: 13.2 min | concentration at 1.05 h [16]: 31 ng/mL | concentration at 0.65 h [17]: 160 ng/mL | concentration at 0.55 h [18]: 23 ng/mL | concentration at 2.5 min [19]: 1180 ng/mL | concentration at 10 min [20]: 365 ng/mL | solubility [21]: Insoluble | concentration at 23 min [22]: 220 ng/mL | concentration at 348 s [23]: 523 ng/mL | concentration at 76 min [24]: 12 ng/mL | concentration at 0.35 h [25]: 44 ng/mL | concentration at 0.168333 h [26]: 332 ng/mL | concentration at 0.1 h [27]: 766 ng/mL | MRT inf [28]: 18.6 min | AUC(0-t) [30]: 0.87 µM·h | Cmax [31]: 3650 nM | concentration at 0.25 h [32]: 461 ng/mL | concentration at 58 min [33]: 52 ng/mL | AUC(0-inf) [34]: 0.88 µM·h | Vd [38]: 2.2 L/kg | IC50 (P2X purinoceptor 7 [3]): 40 nM
Structure (SMILES): N#C/N=C(/NCc1cccnc1)NCC12CC3CC(CC(C3)C1)C2
Activity (Mus musculus [29]): Non-Toxic | Activity (Mus musculus [35]): Non-Toxic | Activity (Mus musculus [36]): Active | Activity (Mus musculus [37]): Non-Toxic
